In patent publication US9914731B2, “Pyrazolo[1,5-a]pyridine derivatives and methods of their use” (Ignyta, Inc., priority 2013, dated 2018):

Legend:
[1] = target: recombinant human baculovirus-expressed AXL (Homo sapiens (Human), UniProt P30530); experiment: AXL kinase assay (HTRF KinEASE); format: biochemical; conditions: average of two or more determinations
[2] = target: recombinant human baculovirus-expressed cMET (Homo sapiens (Human), UniProt P08581); experiment: c-MET kinase assay (HTRF KinEASE); format: biochemical; conditions: average of two or more determinations; read-out: c-MET IC50

SMILES	IC50 [1] [µM]	IC50 [2] [µM]
Cc1ccc(C(=O)Nc2ccc(Oc3cc(-c4cn(C)cn4)cn4nccc34)c(F)c2)c(=O)n1-c1ccc(F)cc1 [Example 91, 1-(4-Fluoro-phenyl)-6-methyl-2-oxo-1,2-dihydro-pyridine-3-carboxylic acid {3-fluoro-4-[6-(1-methyl-1H-imidazol-4-yl)-pyrazolo[1,5-a]pyridin-4-yloxy]-phenyl}-amide]	< 0.01	< 0.01
CCn1cc(C(=O)Nc2ccc(Oc3cc(-c4cn(C)cn4)cn4nccc34)c(F)c2)c(=O)n(-c2ccc(F)cc2)c1=O [Example 93, 1-Ethyl-3-(4-fluoro-phenyl)-2,4-dioxo-1,2,3,4-tetrahydro-pyrimidine-5-carboxylic acid {3-fluoro-4-[6-(1-methyl-1H-imidazol-4-yl)-pyrazolo[1,5-a]pyridin-4-yloxy]-phenyl}-amide]	< 0.01	< 0.01
CC(C)n1cc(C(=O)Nc2ccc(Oc3cc(-c4cn(C)cn4)cn4nccc34)c(F)c2)c(=O)n(-c2ccc(F)cc2)c1=O [Example 94, 3-(4-Fluoro-phenyl)-1-isopropyl-2,4-dioxo-1,2,3,4-tetrahydro-pyrimidine-5-carboxylic acid {3-fluoro-4-[6-(1-methyl-1H-imidazol-4-yl)-pyrazolo[1,5-a]pyridin-4-yloxy]-phenyl}-amide]	< 0.01	< 0.01
Cn1cnc(-c2cc(Oc3ccc(NC(=O)c4cn(C)c(=O)n(-c5ccc(F)cc5)c4=O)cc3F)c3ccnn3c2)c1 [Example 95, 3-(4-Fluoro-phenyl)-1-methyl-2,4-dioxo-1,2,3,4-tetrahydro-pyrimidine-5-carboxylic acid{3-fluoro-4-[6-(1-methyl-1H-imidazol-4-yl)-pyrazolo[1,5-a]pyridin-4-yloxy]-phenyl}-amide]	< 0.01	< 0.01
Cn1cnc(-c2cc(Oc3ccc(NC(=O)c4cn(CCOCc5ccccc5)c(=O)n(-c5ccc(F)cc5)c4=O)cc3F)c3ccnn3c2)c1 [Example 96, 1-(2-Benzyloxy-ethyl)-3-(4-fluoro-phenyl-)-2,4-dioxo-1,2,3,4-tetrahydro-pyrimidine-5-carboxylic acid{3-fluoro-4-[6-(1-methyl-1H-imidazol-4-yl)-pyrazolo[1,5-a]pyridin-4-yloxy]-phenyl}-amide]	< 0.01	0.01 to 0.1
CCn1cc(C(=O)Nc2ccc(Oc3cc(-c4cscn4)cn4nccc34)c(F)c2)c(=O)n(-c2ccc(F)cc2)c1=O [Example 101, 1-Ethyl-3-(4-fluoro-phenyl)-2,4-dioxo-1,2,3,4-tetrahydro-pyrimidine-5-carboxylic acid[3-fluoro-4-(6-thiazol-4-yl-pyrazolo[1,5-a]pyridin-4-yloxy)-phenyl]-amide]	< 0.01	< 0.01
O=C(Nc1ccc(Oc2cc(-c3cscn3)cn3nccc23)c(F)c1)c1cccn(-c2ccc(F)cc2)c1=O [Example 102, 1-(4-Fluoro-phenyl)-2-oxo-1,2-dihydro-pyridine-3-carboxylic acid[3-fluoro-4-(6-thiazol-4-yl-pyrazolo[1,5-a]pyridin-4-yloxy)-phenyl]-amide]	< 0.01	< 0.01
CC(C)n1cc(C(=O)Nc2ccc(Oc3cc(-c4cncs4)cn4nccc34)c(F)c2)c(=O)n(-c2ccc(F)cc2)c1=O [Example 103, 3-(4-Fluoro-phenyl)-1-isopropyl-2,4-dioxo-1,2,3,4-tetrahydro-pyrimidine-5-carboxylic acid[3-fluoro-4-(6-thiazol-5-yl-pyrazolo[1,5-a]pyridin-4-yloxy)-phenyl]-amide]	< 0.01	< 0.01

The next lines start with the values.

IC50 [1] [µM]	IC50 [2] [µM]	SMILES
< 0.01	< 0.01	Cc1ccc(C(=O)Nc2ccc(Oc3cc(-c4cnco4)cn4nccc34)c(F)c2)c(=O)n1-c1ccc(F)cc1 [Example 51, 1-(4-Fluoro-phenyl)-6-methyl-2-oxo-1,2-dihydro-pyridine-3-carboxylic acid [3-fluoro-4-(6-oxazol-5-yl-pyrazolo[1,5-a]pyridin-4-yloxy)-phenyl]-amide]
< 0.01	< 0.01	CCn1cc(C(=O)Nc2ccc(Oc3cc(-c4cnsc4)cn4nccc34)c(F)c2)c(=O)n(-c2ccc(F)cc2)c1=O [Example 54, 1-Ethyl-3-(4-fluoro-phenyl)-2,4-dioxo-1,2,3,4-tetrahydro-pyrimidine-5-carboxylic acid[3-fluoro-4-(6-isothiazol-4-yl-pyrazolo[1,5-a]pyridin-4-yloxy)-phenyl]-amide]
< 0.01	< 0.01	CC(C)n1cc(C(=O)Nc2ccc(Oc3cc(-c4cnsc4)cn4nccc34)c(F)c2)c(=O)n(-c2ccc(F)cc2)c1=O [Example 55, 3-(4-Fluoro-phenyl)-1-isopropyl-2,4-dioxo-1,2,3,4-tetrahydro-pyrimidine-5-carboxylic acid[3-fluoro-4-(6-isothiazol-4-yl-pyrazolo[1,5-a]pyridin-4-yloxy)-phenyl]-amide]
< 0.01	< 0.01	O=C(Nc1ccc(Oc2cc(N3CCOCC3)cn3nccc23)c(F)c1)c1cccn(-c2ccc(F)cc2)c1=O [Example 56, 1-(4-Fluoro-phenyl)-2-oxo-1,2-dihydro-pyridine-3-carboxylic acid[3-fluoro-4-(6-morpholin-4-yl-pyrazolo[1,5-a]pyridin-4-yloxy)-phenyl]-amide]
< 0.01	0.01 to 0.1	Cc1ccc(C(=O)Nc2ccc(Oc3cc(N4CCC(=O)CC4)cn4nccc34)c(F)c2)c(=O)n1-c1ccc(F)cc1 [Example 59, 1-(4-Fluoro-phenyl)-6-methyl-2-oxo-1,2-dihydro-pyridine-3-carboxylic acid {3-fluoro-4-[6-(4-oxo-piperidin-1-yl)-pyrazolo[1,5-a]pyridin-4-yloxy]-phenyl}-amide]
< 0.01	< 0.01	CC(C)n1cc(C(=O)Nc2ccc(Oc3cc(N4CCOCC4)cn4nccc34)c(F)c2)c(=O)n(-c2ccc(F)cc2)c1=O [Example 62, 3-(4-Fluoro-phenyl)-1-isopropyl-2,4-dioxo-1,2,3,4-tetrahydro-pyrimidine-5-carboxylic acid[3-fluoro-4-(6-morpholin-4-yl-pyrazolo[1,5-a]pyridin-4-yloxy)-phenyl]-amide]
< 0.01	< 0.01	O=C(Nc1ccc(Oc2cc(N3CCC(O)CC3)cn3nccc23)c(F)c1)c1cccn(-c2ccc(F)cc2)c1=O [Example 68, 1-(4-Fluoro-phenyl)-2-oxo-1,2-dihydro-pyridine-3-carboxylic acid{3-fluoro-4-[6-(4-hydroxy-piperidin-1-yl)-pyrazolo[1,5-a]pyridin-4-yloxy]-phenyl}-amide]
< 0.01	< 0.01	Cn1cc(Nc2cc(Oc3ccc(NC(=O)c4cccn(-c5ccc(F)cc5)c4=O)cc3F)c3ccnn3c2)cn1 [Example 79, 1-(4-Fluoro-phenyl)-2-oxo-1,2-dihydro-pyridine-3-carboxylic acid {3-fluoro-4-[6-(1-methyl-1H-pyrazol-4-ylamino)-pyrazolo[1,5-a]pyridin-4-yloxy]-phenyl}-amide]
< 0.01	< 0.01	Cn1cnc(-c2cc(Oc3ccc(NC(=O)c4cccn(-c5ccc(F)cc5)c4=O)cc3F)c3ccnn3c2)c1 [Example 88, 1-(4-Fluoro-phenyl)-2-oxo-1,2-dihydro-pyridine-3-carboxylic acid {3-fluoro-4-[6-(1-methyl-1H-imidazol-4-yl)-pyrazolo[1,5-a]pyridin-4-yloxy]-phenyl}-amide]
